In patent publication US8815864B2, “Indanyloxydihydrobenzofuranylacetic acids” (Boehringer Ingelheim International GmbH, priority 2012, dated 2014):

Target: human GPR40 receptor (Homo sapiens, UniProt O14842)
Assay: IP1 accumulation measurements using the IPOne assay system
Type: cell-based
Conditions: 1321N1 cells stably expressing human GPR40; stimulation 1 h at 37° C.
Outline: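 Cells were stimulated with compounds for 1 h at 37 °C in HEPES-buffered stimulation buffer containing 50 mM LiCl, pH 7.4. IP1 was then detected by HTRF (IP1-d2/anti-IP1 cryptate, 1 h at room temperature), and 665/615 ratios were converted using an IP1 reference curve, with pEC50 obtained by variable-slope sigmoidal fitting.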

Sequence of human GPR40 receptor (O14842 whole entry): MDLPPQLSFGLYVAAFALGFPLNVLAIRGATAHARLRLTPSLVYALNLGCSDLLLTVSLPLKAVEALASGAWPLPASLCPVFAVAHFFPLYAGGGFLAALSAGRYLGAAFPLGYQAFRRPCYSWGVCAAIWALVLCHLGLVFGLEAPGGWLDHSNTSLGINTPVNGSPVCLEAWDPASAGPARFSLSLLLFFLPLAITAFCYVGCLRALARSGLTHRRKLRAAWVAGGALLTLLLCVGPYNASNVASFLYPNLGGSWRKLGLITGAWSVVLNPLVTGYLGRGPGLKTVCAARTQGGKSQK

Row | Structure (SMILES) | EC50
1 | Cc1nc2ccc(Oc3ccc(F)c4c3CC[C@H]4Oc3ccc4c(c3)OC[C@H]4CC(=O)O)cc2s1 [Example 59, {(S)-6-[(R)-7-Fluoro-4-(2-methyl-benzothiazol-6-yloxy)-indan-1-yloxy]-2,3-dihydro-benzofuran-3-yl}-acetic acid] | 5 nM
2 | Cc1noc2ccc(Oc3ccc(F)c4c3CC[C@H]4Oc3ccc4c(c3)OC[C@H]4CC(=O)O)cc12 [Example 60, {(S)-6-[(R)-7-Fluoro-4-(3-methyl-benzo[d]isoxazol-5-yloxy)-indan-1-yloxy]-2,3-dihydro-benzofuran-3-yl}-acetic acid] | 3 nM
3 | Cc1noc2cc(Oc3ccc(F)c4c3CC[C@H]4Oc3ccc4c(c3)OC[C@H]4CC(=O)O)ccc12 [Example 61, {(S)-6-[(R)-7-Fluoro-4-(3-methyl-benzo[d]isoxazol-6-yloxy)-indan-1-yloxy]-2,3-dihydro-benzofuran-3-yl}-acetic acid] | 3 nM
